Test results published in US7253139B2, “Surfactant preparations comprising α-hydroxy acids” (Cognis Deutschland GmbH & Co. KG, priority 2001, dated 2007).

Legend:
[1] = Determination of surface tension, Wilhelmy plate method (DIN 53914); type: physicochemical; conditions: added to anionic surfactant (Texapon NSO)
Description: Determination of Surface Activity
Surface activity was determined to DIN 53914. To this end, the solution to be tested was tested by the Wilhelmy plate method (plate PT 11) at 21±1° C. The preparations according to the invention are intended to have a surface activity of at least 20 mN/m, preferably at least 25 mN/m and more particularly at least 30 mN/m, based on the active substance content of 5% by weight.
The surface tension of the surfactant solution containing tartaric acid was compared with that of the pure surfactant solution (Texapon® NSO, sodium lauryl ether sulfate; Cognis, Dusseldorf) by conducting measurements at 21±1° C. using the Wilhelmy plate method (plate PT 11) to DIN 53914.

[2] = Determination of foaming behavior, rotor foam method; type: physicochemical; conditions: added to anionic surfactant (Texapon NSO)
Description: To determine foaming behavior, the foaming kinetics after 30 seconds and the foam potential after 60 s and 180 s were measured by the rotor foam method (DIN 13996 in preparation). The rotor foam tester consists of a heatable, double-walled cylindrical glass vessel with an internal diameter of 17.5 cm. A scale in mm is provided on the cylindrical glass vessel for reading off the foam height and the liquid level. In addition, the glass vessel is provided with a Styropor lid which is used both to cover and to insulate the vessel. The stirrer consists of a special stirring head with a stirrer shaft 28 cm in length and 1 cm in diameter and a JK stirrer with a digital revolution counter. A thermostat, a stopwatch and a thermometer (digital) are also required.
The test solution was prepared with water of a certain hardness (15° dH). 200 ml of the sample preheated to 30±1° C. were slowly poured in at the rim of the glass vessel which was covered with the Styropor lid when the required temperature of 30±1° C. had been reached. The rotor speed was 1300 r.p.m.
The first foam height value was determined after 30 seconds. To this end, the stirrer was switched off for at most 10 seconds. The foam volume was then determined after 60 and 180 seconds.

Compound | Effect of the addition on the surface activity of the anionic surfactant [1] | Effect of the addition on the foam behavior of the anionic surfactant [2]
O=C(O)C(O)C(O)C(=O)O (stereo not shown) [tartaric acid] | does not significantly affect | does not significantly affect
laureth-4-citrate | does not significantly affect | does not significantly affect
